Drawing on ChEMBL document CHEMBL2424588, “Four-membered heterocycles-containing 4-anilino-quinazoline derivatives as epidermal growth factor receptor (EGFR) kinase inhibitors” (Bioorg Med Chem Lett, 2013), this text covers IC50 and solubility for 14 molecules.

A short description of series [1]: Cytotoxicity against human HCC827 cells after 72 hrs by CCK-8 assay. It is filed as functional, cell-based. To be noted: HCC827, 72 h.
Series [2] deals with Epidermal growth factor receptor (Homo sapiens, UniProt P00533). The experiment in a line: Inhibition of wild type EGFR (unknown origin) after 24 hrs by fluorescence assay.
Chain of Epidermal growth factor receptor (P00533 whole entry): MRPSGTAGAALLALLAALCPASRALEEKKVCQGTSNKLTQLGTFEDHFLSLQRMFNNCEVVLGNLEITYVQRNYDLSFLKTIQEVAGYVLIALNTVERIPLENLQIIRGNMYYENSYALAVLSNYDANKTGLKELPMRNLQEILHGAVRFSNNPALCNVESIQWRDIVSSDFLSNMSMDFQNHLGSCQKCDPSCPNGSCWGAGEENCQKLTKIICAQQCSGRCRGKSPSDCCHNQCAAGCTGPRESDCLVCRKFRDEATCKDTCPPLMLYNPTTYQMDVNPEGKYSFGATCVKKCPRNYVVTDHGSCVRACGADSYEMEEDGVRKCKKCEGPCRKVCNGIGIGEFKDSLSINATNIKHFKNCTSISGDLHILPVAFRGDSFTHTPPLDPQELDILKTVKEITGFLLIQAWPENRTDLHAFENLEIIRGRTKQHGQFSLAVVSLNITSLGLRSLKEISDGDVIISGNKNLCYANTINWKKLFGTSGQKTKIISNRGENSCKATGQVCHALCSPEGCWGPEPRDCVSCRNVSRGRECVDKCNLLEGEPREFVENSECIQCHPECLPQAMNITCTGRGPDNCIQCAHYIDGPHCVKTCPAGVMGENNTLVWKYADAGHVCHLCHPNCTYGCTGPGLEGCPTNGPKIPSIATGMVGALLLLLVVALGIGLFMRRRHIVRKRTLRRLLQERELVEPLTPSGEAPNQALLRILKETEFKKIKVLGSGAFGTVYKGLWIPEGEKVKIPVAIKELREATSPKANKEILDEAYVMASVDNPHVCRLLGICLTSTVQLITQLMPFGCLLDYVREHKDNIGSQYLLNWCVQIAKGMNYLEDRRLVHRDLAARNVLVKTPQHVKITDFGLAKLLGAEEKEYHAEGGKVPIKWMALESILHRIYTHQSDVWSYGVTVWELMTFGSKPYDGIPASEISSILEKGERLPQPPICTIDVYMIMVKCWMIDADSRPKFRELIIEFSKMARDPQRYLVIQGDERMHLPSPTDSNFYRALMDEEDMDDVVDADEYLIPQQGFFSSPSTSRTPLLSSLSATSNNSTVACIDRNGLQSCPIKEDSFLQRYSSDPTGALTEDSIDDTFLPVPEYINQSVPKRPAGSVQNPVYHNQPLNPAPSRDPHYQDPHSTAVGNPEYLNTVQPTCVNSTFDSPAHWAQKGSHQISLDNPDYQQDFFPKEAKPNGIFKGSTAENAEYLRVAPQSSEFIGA
A short description of series [3]: Aqueous solubility of the compound at 20 degC. To be noted: water. It counts as physicochemical.
In a further series the test system is A549. Kind of series: Cytotoxicity against human A549 cells after 72 hrs by CCK-8 assay. It is filed as functional, cell-based. To be noted: A549, 72 h. (In general: Formazan colour is commonly taken as a measure of viable cells.)

≈ marks a conversion by molar mass, not a printed value.

Take `COc1cc2ncnc(Nc3ccc(F)c(Cl)c3)c2cc1OCCN1CC2(C1)CS(=O)(=O)C2`: the 50% inhibitory concentration (IC50) (in general, the concentration that gives 50% inhibition) in series [1] was 154 nM; in series [2] it was 158 nM; in the series with A549, above 50000 nM. The solubility – broadly, the concentration that dissolves in the medium under given conditions – in series [3] was below 1 µg/mL.

In the case of `COc1cc2ncnc(Nc3ccc(F)c(Cl)c3)c2cc1OCCCN1CC2(C1)CS(=O)(=O)C2`, the IC50 was 389 nM in series [1], 24 nM in series [2] and 25200 nM with A549. Further, in series [3], the concentration in solution (solubility) was 72.3 µg/mL (≈ 143 µM).

On to `COc1cc2ncnc(Nc3ccc(F)c(Cl)c3)c2cc1OCCCN1CC(O)C1`, for which the IC50 in series [1] was 352 nM; in series [2], 25 nM; with A549 it was above 50000 nM.

`COc1cc2ncnc(Nc3ccc(F)c(Cl)c3)c2cc1OCCCN1CC(OC)C1`: the half-maximal inhibitory concentration (IC50) was 42 nM in series [1], 34 nM in series [2] and 25100 nM in the series with A549.

With `COc1cc2ncnc(Nc3ccc(F)c(Cl)c3)c2cc1OCCCN1CCC2(COC2)C1`, the results for the IC50 (in series [1]; in the series with A549) were 28 nM and above 50000 nM, respectively. Moreover, the solubility in series [3] came to 33.8 µg/mL (≈ 71.5 µM).

In the case of `COc1cc2ncnc(Nc3ccc(F)c(Cl)c3)c2cc1OCCN1CC2(COC2)C1`, the concentration for half-maximal inhibition (IC50) was 16 nM in series [1], 16 nM in series [2] and above 50000 nM with A549. In series [3], the solubility came to 1.4 µg/mL (≈ 3.15 µM).

For `COc1cc2ncnc(Nc3ccc(F)c(Cl)c3)c2cc1OCCN1CC2(CCO2)C1`, the IC50 is 23 nM in series [1], 190 nM in series [2] and above 50000 nM with A549. Besides, in series [3], the solubility is below 1 µg/mL.

As for `COc1cc2ncnc(Nc3ccc(F)c(Cl)c3)c2cc1OCCN1CC2(CSC2)C1`, the IC50 in series [1] was 51 nM; in series [2], 52 nM; in the series with A549 it was 4800 nM. Also, the solubility in series [3] was below 1 µg/mL.

On to `COc1cc2ncnc(Nc3ccc(F)c(Cl)c3)c2cc1OCCN1CC(O)C1`, for which the values for the concentration for half-maximal inhibition (IC50) (in series [1]; in series [2]; with A549) were 116 nM, 26 nM and above 50000 nM, respectively.

For the molecule `COc1cc2ncnc(Nc3ccc(F)c(Cl)c3)c2cc1OCCN1CC(OC)C1`, the concentration for half-maximal inhibition (IC50) was 64 nM in series [1], 94 nM in series [2] and above 50000 nM in the series on A549.

In the case of `COc1cc2ncnc(Nc3ccc(F)c(Cl)c3)c2cc1OCCCN1CC2(COC2)C1`, the IC50 was 69 nM in series [1], 56 nM in series [2] and 31800 nM in the series with A549. This molecule also displayed a solubility in series [3] of 28.3 µg/mL (≈ 61.7 µM).

On to `COc1cc2ncnc(Nc3ccc(F)c(Cl)c3)c2cc1OCCCN1CC2(CCO2)C1`, for which the IC50 amounted to 39 nM in series [1], 36 nM in series [2] and 25700 nM in the series on A549. The molecule further displayed a solubility in series [3] of 1.2 µg/mL (≈ 2.61 µM).

Regarding `COc1cc2ncnc(Nc3ccc(F)c(Cl)c3)c2cc1OCCCN1CC2(CSC2)C1`, the half-maximal inhibitory concentration (IC50) in series [1] came to 50 nM; in series [2] it was 48 nM; in the series with A549, 9500 nM. In addition, the solubility in series [3] was 25.6 µg/mL (≈ 53.9 µM).

On to `COc1cc2ncnc(Nc3ccc(F)c(Cl)c3)c2cc1OCCCN1CCOCC1` [GEFITINIB], for which the concentration in solution in series [3] (solubility) was 2.1 µg/mL (≈ 4.7 µM).
